Patent US4845123A, “Reduction in vivo of the inappropriate levels of endogenous and environmental-derived compounds by sustained-release inhibitors of β- g” (priority 1985, dated 1989)
“Also recorded” adds a separate entry of the source.

Assays:
60 kd oncofetal protein [1] = conditions: rat, in vivo; for Plasma concentration of the 60 kd protein at 21 days post-treatment with PAH: ip
60 kd oncofetal protein [2] = test: effect of β-glucuronidase inhibitors on carcinogen induction of the 60 kd factor in plasma (cell-free RNA transport assay); assay type: in vivo, rat; conditions: rat, in vivo
bladder cancer = conditions: dog, in vivo; cited from earlier work
serum β-glucuronidase = target: T1, serum β-glucuronidase (Rattus norvegicus, UniProt P06760); test: in vivo; assay type: in vivo; conditions: rat, in vivo
T1 sequence (P06760 23-648): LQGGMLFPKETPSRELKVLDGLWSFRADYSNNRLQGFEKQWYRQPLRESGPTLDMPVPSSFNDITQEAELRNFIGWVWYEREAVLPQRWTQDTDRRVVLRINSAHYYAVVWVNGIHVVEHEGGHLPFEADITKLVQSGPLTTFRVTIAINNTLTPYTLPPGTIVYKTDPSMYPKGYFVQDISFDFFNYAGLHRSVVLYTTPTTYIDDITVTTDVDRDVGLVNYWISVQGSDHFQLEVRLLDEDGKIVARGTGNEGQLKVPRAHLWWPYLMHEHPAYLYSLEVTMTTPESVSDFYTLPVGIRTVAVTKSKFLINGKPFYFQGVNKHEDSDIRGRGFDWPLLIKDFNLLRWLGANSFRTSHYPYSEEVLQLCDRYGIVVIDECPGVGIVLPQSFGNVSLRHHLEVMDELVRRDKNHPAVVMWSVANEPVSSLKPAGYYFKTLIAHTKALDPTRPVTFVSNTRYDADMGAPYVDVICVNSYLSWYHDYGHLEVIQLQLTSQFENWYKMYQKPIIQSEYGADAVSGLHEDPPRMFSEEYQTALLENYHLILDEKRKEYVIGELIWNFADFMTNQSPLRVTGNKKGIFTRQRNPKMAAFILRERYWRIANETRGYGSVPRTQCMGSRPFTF
Description: GL was synthesized and microencapsulated to give sustained-release GL (EGL), by an established procedure used to microencapsulate ascorbic acid, as reported in Samejima, M. et al., Chem. Pharm. Bull., (Tokyo) 1982, 30:2894-2899. In this procedure, the GL as a fine powder is added to a stirred mixture of cyclohexane, polyisobutylene as coacervation-inducing agent and ethylcellulose as wall-forming material. The addition of GL is at 78° C., then phase separation is induced by lowering the temperature first to 40° C., then to 25° C. The microcapsules, which have thick walls, are washed with cyclohexane and dried. […] DAGDL, calcium D-glucarate (CGT), and potassium hydrogen D-glucarate (PGT) were synthesized. For comparison of efficacy of the inhibitors, 1,5 mmoles/kg (GL, EGL or DAGDL) or 4.5 mmoles/kg (CGT or PGT) of the inhibitor in 1.0 ml of sesame oil or vehicle only (controls) was administered to rats by stomach tube at zero time. Blood samples were obtained from different rats by cardiac puncture under ether anesthesia. The serum was prepared and assayed for β-glucuronidase activity using a commerical diagnostic kit sold by Sigma Chemical Company, St. Louis, MO. The assay is based on the hydrolysis of phenolphthalein-glucuronide and quantitation of phenolphthalein in alkaline medium at […]. For tests of anti-carcinogencity, the inhibitors were administered by stomach tube in 1.0 ml of sesame oil 30 minutes before and again at 2.5 hours after the carcinogen, for DAGDL, or 3 hours and 30 minutes before the carcinogen, for EGL, CGT, and PGT. The controls received sesame oil only by stomach tube.
At the time periods indicated above blood samples were obtained from rats under ether aneathesia by cardiac puncture, the serum was then prepared and assayed for β-glucuronidase activity using a commercial diagnostic kit sold by Sigma Chem. Co., St. Louis, MO.
For the inhibition of the initiation stage, CGT was given by gavage in two doses (4.5 mmoles/kg/dose) at 3 hours and again at 0.5 hours before carcinogen administration. […] The concentrations of CGT were incorporated into the powdered chow diet. The blood samples were obtained 10 days after the initiation of the CGT feeding.
DAGDL or GL (1.5 mmol/kg) in 1.0 ml of sesame oil, or vehicle only (controls) was administered to rats by stomach tube at zero time. […] The serum was prepared and assayed for β-glucuronidase activity using a commercial diagnostic kit sold by Sigma Chemical Company, St. Louis, MO. The assay is based on the hydrolysis of phenolphthalein-glucuronide and quantitation of phenolphtalein in alkaline medium at 550 nm.

bladder tumors = conditions: human, in vivo; cited from earlier work
[3] = in vivo; cited from earlier work
β-glucuronidase = conditions: cited from earlier work
bladder tumor = conditions: rat, in vivo; cited from earlier work
[4] = rat, in vivo, iv, cited from earlier work
[5] = equilibrated aqueous solution; cited from earlier work

| Compound | Treatment -I: total concentration of 60 kd factor induced by the carcinogen (60 kd oncofetal protein [1]) | Plasma concentration of the 60 kd protein at 21 days post-treatment with PAH (60 kd oncofetal protein [1]) | also measured |
| --- | --- | --- | --- |
| COc1cc2c(c3oc(=O)c4c(c13)CCOC4=O)[C@@H]1CCO[C@@H]1O2 [Aflatoxin G2, aflatoxin G2] | 3.80 | – | – |
| O=[N+]([O-])c1ccc2ccc3cccc4ccc1c2c34 [1-Nitropyrene, reference compound] | – | 5.30 units | overall inhibition of PAH-mediated carcinogenesis, as inhibition of 60 kd oncofetal protein induction (60 kd oncofetal protein [2]): 50% |
| O=C(O)[C@@H](O)[C@H]1OC(=O)[C@H](O)[C@H]1O [GL, D-glucaro-1,4-lactone, reference compound] | – | – | prevention of bladder cancer induced with 2-naphthylamine (bladder cancer): without any success; depression of serum β-glucuronidase (serum β-glucuronidase): approximately 50%; reversibility of inhibition by prolonged dialysis (serum β-glucuronidase): could be reversed; time-course of serum β-glucuronidase inhibition (serum β-glucuronidase): only a transient inhibition; also recorded: transient nature of the inhibition; clinical effect in prevention of bladder tumors (bladder tumors): failed to show any clear beneficial effects; administered compound excreted unchanged in urine [3]: less than 50%; rate of metabolism and excretion [3]: rapidly metabolized; inhibition of β-glucuronidase in vitro (β-glucuronidase): potent inhibitor; effect on 2-acetylaminofluorene carcinogenesis (bladder tumor): unsuccessful |
| Cc1ccc2cc3c(ccc4ccccc43)c3c2c1CC3 [3-Methylcholanthrene, 3-methyl-1,2-dihydrobenz[j]aceanthrylene] | 5.62 | 6.82 | overall inhibition of PAH-mediated carcinogenesis, as inhibition of 60 kd oncofetal protein induction (60 kd oncofetal protein [2]): 50% |
| C=CCc1ccc2c(c1)OCO2 [Safrole, safrole] | 5.90 | – | – |
| CN(N=O)C(N)=O [N--Nitrosomethylurea, N-nitroso-N-methylurea] | 4.69 | – | 60 kd factor in plasma, MNU without inhibitor (60 kd oncofetal protein [1]): 4.6 |
| c1ccc2cc3ccccc3cc2c1 [Anthracene] | – | 0.0 | – |
| Cc1c2ccccc2c(C)c2c1ccc1ccc(F)cc12 [2-Fluoro-7,12-dimethylbenz[a]anthracene] | – | 0.0 | – |
| CCN(N=O)C(N)=O [N--Nitrosoethylurea, N-nitroso-N-ethylurea] | 4.50 | – | – |
| CN(C)N=O [N--Nitrosodimethylamine, N-nitroso-N,N-dimethylamine] | 3.40 | – | – |
| c1ccc2c(c1)cc1ccc3cccc4ccc2c1c34 [Benzo[a]pyrene] | 7.73 | 7.73 | dose excreted in bile ([4]; 6 h): ~60%; biliary metabolites being glucuronides [4]: 40%; overall inhibition of PAH-mediated carcinogenesis, as inhibition of 60 kd oncofetal protein induction (60 kd oncofetal protein [2]): 75% |
| CC(=O)Nc1ccc2c(c1)Cc1ccccc1-2 [2-Acetyalaminofluorine, 2-acetylaminofluorene] | 5.11 | – | – |
| Nc1ccc2ccccc2c1 [2-Naphthylamine, 2-naphthylamine] | 3.29 | – | – |
| CCN(CC)N=O [N--Nitrosodiethylamine, N-nitroso-N, N-diethylamine] | 4.21 | – | – |
| O=C(O)[C@@H](O)[C@@H](O)[C@H](O)[C@@H](O)C(=O)O [glucarate] | – | – | fraction of glucarate converted to GL [5]: approximately one-third |
| c1ccc2c(c1)c1cccc3ccc4cccc2c4c31 [Benzo[e]pyrene] | – | 3.37 | – |
| c1cc2ccc3cccc4ccc(c1)c2c34 [Pyrene] | – | 0.0 | – |
| Cc1c2ccccc2c(C)c2c1ccc1ccccc12 [7,12-Dimethylbenz[a]anthracene, 7,12-dimethylbenz[a]anthracene] | – | 6.42 | overall inhibition of PAH-mediated carcinogenesis, as inhibition of 60 kd oncofetal protein induction (60 kd oncofetal protein [2]): 75% |
| CCCCN(CCCC)N=O [N--Nitrosodibutylamine, N-nitroso-N,N-dibutylamine] | 5.44 | – | – |
| c1ccc2cc3c(ccc4ccccc43)cc2c1 [Benz[a]anthracene] | – | 4.92 | – |
| O=C(O)[C@@H](O)[C@@H](O)[C@H](O)[C@@H](O)C(=O)[O-].[K+] [PGT, potassium hydrogen D-glucarate] | – | – | time-course of serum β-glucuronidase inhibition (serum β-glucuronidase): prolonged inhibition; Percent Inhibition of the induction of the 60 kd factor (60 kd oncofetal protein [2]): 65%; Treatment +I: total concentration of 60 kd factor (60 kd oncofetal protein [2]): 2.25 |
| c1ccc2c(c1)Cc1ccccc1-2 [Fluorene] | – | 0.0 units | – |
| CNNC [1,2-Dimethylhydrazine, 1,2-dimethylhydrazine] | 5.40 | – | – |
| COc1cc2c(c3oc(=O)c4c(c13)CCC4=O)[C@@H]1C=CO[C@@H]1O2 [Aflatoxin B1, aflatoxin B1] | 4.37 | – | – |
